The target of the experiment is CK2A1 (CK2α/β) (Homo sapiens, UniProt P68400). The experiment can be described thus: CK2 kinase assay, CK2A1 (CK2α/β). It counts as biochemical. Particulars: Table A; read-out: CK2A1 (CK2α/β) (IC50).
Chain of CK2A1 (CK2α/β) (P68400 whole entry, species assumed): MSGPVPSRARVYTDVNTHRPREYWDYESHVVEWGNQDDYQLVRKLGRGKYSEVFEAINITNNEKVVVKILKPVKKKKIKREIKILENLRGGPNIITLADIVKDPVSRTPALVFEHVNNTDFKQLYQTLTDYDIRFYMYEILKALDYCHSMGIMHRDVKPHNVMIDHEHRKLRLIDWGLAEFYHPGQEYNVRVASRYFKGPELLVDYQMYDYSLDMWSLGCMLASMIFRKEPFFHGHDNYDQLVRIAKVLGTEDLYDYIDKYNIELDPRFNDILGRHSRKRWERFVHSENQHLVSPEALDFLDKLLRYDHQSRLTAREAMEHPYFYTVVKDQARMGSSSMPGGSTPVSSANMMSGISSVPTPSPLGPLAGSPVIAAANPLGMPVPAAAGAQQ
Chain of CK2A1 (CK2α/β) (P67870 whole entry partner, species assumed): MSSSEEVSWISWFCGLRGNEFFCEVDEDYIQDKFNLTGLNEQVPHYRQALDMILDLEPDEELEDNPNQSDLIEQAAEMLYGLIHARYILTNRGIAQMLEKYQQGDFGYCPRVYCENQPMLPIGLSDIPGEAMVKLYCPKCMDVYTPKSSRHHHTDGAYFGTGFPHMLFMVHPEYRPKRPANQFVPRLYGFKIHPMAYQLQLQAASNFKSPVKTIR
Take `CN1CCN(C2CCN(c3cc(C#N)cc(Nc4nc(NC5CC5)c5ncc(C#N)n5n4)c3Cl)CC2)CC1` [Example 12, 2-((2-chloro-5-cyano-3-(4-(4-methyl-1-piperazinyl)-1-piperidinyl)phenyl)amino)-4-(cyclopropylamino)imidazo [2,1-f][1,2,4]triazine-7-carbonitrile]: the IC50 is 1.15 nM.

In the case of `COC(=O)N[C@@H]1C[C@@H]2CN(c3cc(C#N)cc(Nc4nc(NC5CC5)c5ncc(C#N)n5n4)c3Cl)C[C@@H]2C1` [Example 13, (+/−) methyl ((3aR,5r,6aS)-2-(2-chloro-5-cyano-3-((7-cyano-4-(cyclopropylamino)imidazo [2,1-f][1,2,4]triazin-2-yl)amino)phenyl)octahydro-cyclopenta[c]pyrrol-5-yl)carbamate], the IC50 amounted to 1.7 nM.

Turning to `COC(=O)N[C@H]1CN(c2cc(C#N)cc(Nc3nc(NC4CC4)c4ncc(C#N)n4n3)c2Cl)C[C@H]1OC` [Example 14, methyl ((3S,4R)-1-(2-chloro-5-cyano-3-((7-cyano-4-(cyclopropylamino)imidazo [2,1-f][1,2,4]triazin-2-yl)amino)phenyl)-4-methoxy-3-pyrrolidinyl)carbamate], the IC50 stood at 0.7 nM.

As to `CN1CCC(N2CCN(c3cc(C#N)cc(Nc4nc(NC5CC5)c5ncc(C#N)n5n4)c3Cl)CC2)CC1` [Example 15, 2-((2-chloro-5-cyano-3-(4-(1-methyl-4-piperidinyl)-1-piperazinyl)phenyl)amino)-4-(cyclopropylamino)imidazo [2,1-f][1,2,4]triazine-7-carbonitrile], the IC50 is 1.98 nM.

For the compound `CC(C)(O)C1CCN(c2cc(C#N)cc(Nc3nc(NC4CC4)c4ncc(C#N)n4n3)c2Cl)CC1` [Example 16, 2-((2-chloro-5-cyano-3-(4-(1-hydroxy-1-methylethyl)-1-piperidinyl)phenyl)amino)-4-(cyclopropylamino)imidazo [2,1-f][1,2,4]triazine-7-carbonitrile], the IC50 stood at 1 nM.

Take `CC1(N)CCN(c2cc(C#N)cc(Nc3nc(NC4CC4)c4ncc(C#N)n4n3)c2Cl)CC1` [Example 18, 2-((3-(4-amino-4-methyl-1-piperidinyl)-2-chloro-5-cyanophenyl)amino)-4-(cyclopropylamino)imidazo [2,1-f][1,2,4]triazine-7-carbonitrile]: the IC50 worked out at 0.55 nM.

For the compound `CN1CCC2(CC1)CN(c1cc(C#N)cc(Nc3nc(NC4CC4)c4ncc(C#N)n4n3)c1Cl)C2` [Example 22, 2-((2-chloro-5-cyano-3-(7-methyl-2,7-diazaspiro[3.5]non-2-yl)phenyl)amino)-4-(cyclopropylamino)imidazo [2,1-f][1,2,4]triazine-7-carbonitrile], the IC50 is 0.68 nM.

As to `C[C@@H]1CN(c2cc(C#N)cc(Nc3nc(NC4CC4)c4ncc(C#N)n4n3)c2Cl)C[C@H](C)N1C` [Example 24, (+/−) 2-((2-chloro-5-cyano-3-((3R,5S)-3,4,5-trimethyl-1-piperazinyl)phenyl)amino)-4-(cyclopropylamino)imidazo [2,1-f][1,2,4]triazine-7-carbonitrile], the IC50 was 1 nM.

Regarding `CN1CCCN(C2CN(c3cc(C#N)cc(Nc4nc(NC5CC5)c5ncc(C#N)n5n4)c3Cl)C2)CC1` [Example 29, 2-((2-chloro-5-cyano-3-(3-(4-methyl-1,4-diazepan-1-yl)-1-azetidinyl)phenyl)amino)-4-(cyclopropylamino)imidazo [2,1-f][1,2,4]triazine-7-carbonitrile], the IC50 stood at 0.31 nM.

`CO[C@@H]1CN(c2cc(C#N)cc(Nc3nc(NC4CC4)c4ncc(C#N)n4n3)c2Cl)C[C@@H]1N` [Example 30, 2-((3-((3S,4R)-3-amino-4-methoxy-1-pyrrolidinyl)-2-chloro-5-cyanophenyl)amino)-4-(cyclopropylamino)imidazo [2,1-f][1,2,4]triazine-7-carbonitrile]: the IC50 was 0.92 nM.

Regarding `C[C@]1(N)CCN(c2cc(C#N)cc(Nc3nc(NC4CC4)c4ncc(C#N)n4n3)c2Cl)C[C@@H]1O` [Example 36, 2-((3-((3S,4S)-4-amino-3-hydroxy-4-methyl-1-piperidinyl)-2-chloro-5-cyanophenyl)amino)-4-(cyclopropylamino)imidazo [2,1-f][1,2,4]triazine-7-carbonitrile], the IC50 worked out at 0.32 nM.

As to `CC(C)(O)[C@@H]1CN(c2cc(C#N)cc(Nc3nc(NC4CC4)c4ncc(C#N)n4n3)c2Cl)CCO1` [Example 37, 2-((2-chloro-5-cyano-3-((2S)-2-(1-hydroxy-1-methylethyl)-4-morpholinyl)phenyl)amino)-4-(cyclopropylamino)imidazo [2,1-f][1,2,4]triazine-7-carbonitrile], the IC50 worked out at 0.35 nM.

On to `CC(C)(O)[C@H]1CN(c2cc(C#N)cc(Nc3nc(NC4CC4)c4ncc(C#N)n4n3)c2Cl)CCO1` [Example 38, 2-((2-chloro-5-cyano-3-((2R)-2-(1-hydroxy-1-methylethyl)-4-morpholinyl)phenyl)amino)-4-(cyclopropylamino)imidazo [2,1-f][1,2,4]triazine-7-carbonitrile], for which the IC50 came out at 1.2 nM.

`N#Cc1cc(Nc2nc(NC3CC3)c3ncc(C#N)n3n2)c(Cl)c(N2CCC(O)CC2)c1` [Example 39, 2-((2-chloro-5-cyano-3-(4-hydroxy-1-piperidinyl)phenyl)amino)-4-(cyclopropylamino)imidazo [2,1-f][1,2,4]triazine-7-carbonitrile]: the IC50 is 0.46 nM.

On to `N#Cc1cc(Nc2nc(NC3CC3)c3ncc(C#N)n3n2)c(Cl)c(N2CCC[C@@H](N)C2)c1` [Example 40, (R)-2-(3-(3-aminopiperidin-1-yl)-2-chloro-5-cyanophenylamino)-4-(cyclopropylamino)imidazo [1,2-f][1,2,4]triazine-7-carbonitrile], for which the IC50 is 2.49 nM.

For `COC(=O)N[C@@H]1CCCN(c2cc(C#N)cc(Nc3nc(NC4CC4)c4ncc(C#N)n4n3)c2Cl)C1` [Example 41, methyl ((3R)-1-(2-chloro-5-cyano-3-((7-cyano-4-(cyclopropylamino)imidazo [2,1-f][1,2,4]triazin-2-yl)amino)phenyl)-3-piperidinyl)carbamate], the IC50 came out at 0.94 nM.

On to `N#Cc1cc(Nc2nc(NC3CC3)c3ncc(C#N)n3n2)c(Cl)c(N2CCC[C@@H](NC3COC3)C2)c1` [Example 42, 2-((2-chloro-5-cyano-3-((3R)-3-(3-oxetanylamino)-1-piperidinyl)phenyl)amino)-4-(cyclopropylamino)imidazo [2,1-f][1,2,4]triazine-7-carbonitrile], for which the IC50 turned out to be 2.58 nM.

On to `CC(C)(O)CN[C@@H]1CCCN(c2cc(C#N)cc(Nc3nc(NC4CC4)c4ncc(C#N)n4n3)c2Cl)C1` [Example 43, 2-((2-chloro-5-cyano-3-((3R)-3-((2-hydroxy-2-methylpropyl)amino)-1-piperidinyl)phenyl)amino)-4-(cyclopropylamino)imidazo [2,1-f][1,2,4]triazine-7-carbonitrile], for which the IC50 was 1.82 nM.

For the compound `N#Cc1cc(Nc2nc(NC3CC3)c3ncc(C#N)n3n2)c(Cl)c(N2CC[C@@H](NC3COC3)C2)c1` [Example 44, 2-((2-chloro-5-cyano-3-((3R)-3-(3-oxetanylamino)-1-pyrrolidinyl)phenyl)amino)-4-(cyclopropylamino)imidazo [2,1-f][1,2,4]triazine-7-carbonitrile], the IC50 was found to be 0.33 nM.

Consider `CC1(O)CN([C@@H]2CCCN(c3cc(C#N)cc(Nc4nc(NC5CC5)c5ncc(C#N)n5n4)c3Cl)C2)C1` [Example 45, 2-((2-chloro-5-cyano-3-((3R)-3-(3-hydroxy-3-methyl-1-azetidinyl)-1-piperidinyl)phenyl)amino)-4-(cyclopropylamino)imidazo [2,1-f][1,2,4]triazine-7-carbonitrile], for which the IC50 amounted to 0.96 nM.

Consider `N#Cc1cc(Nc2nc(NC3CC3)c3ncc(C#N)n3n2)c(Cl)c(N2CC[C@@H](N)C2)c1` [Example 46, (R)-2-(3-(3-aminopyrrrolidin-1-yl)-2-chloro-5-cyanophenylamino)-4-(cyclopropylamino)imidazo [1,2-f][1,2,4]triazine-7-carbonitrile], for which the IC50 amounted to 1.31 nM.

`CC1(O)CN([C@@H]2CCN(c3cc(C#N)cc(Nc4nc(NC5CC5)c5ncc(C#N)n5n4)c3Cl)C2)C1` [Example 47, (R)-2-(2-chloro-5-cyano-3-(3-(3-hydroxy-3-methylazetidin-1-yl)pyrrolidin-1-yl)phenylamino)-4-(cyclopropylamino)imidazo [1,2-f][1,2,4]triazine-7-carbonitrile]: the IC50 was determined as 1.73 nM.

As for `N#Cc1cc(Nc2nc(NC3CC3)c3ncc(C#N)n3n2)c(Cl)c(N2CCC3(CC2)COC3)c1` [Example 48, 2-((2-chloro-5-cyano-3-(2-oxa-7-azaspiro[3.5]non-7-yl)phenyl)amino)-4-(cyclopropylamino)imidazo [2,1-f][1,2,4]triazine-7-carbonitrile], the IC50 was 0.71 nM.

Turning to `CN(CCN)c1cc(C#N)cc(Nc2nc(NC3CC3)c3ncc(C#N)n3n2)c1Cl` [Example 50], the IC50 was determined as 0.63 nM.

On to `CN(CCNC1COC1)c1cc(C#N)cc(Nc2nc(NC3CC3)c3ncc(C#N)n3n2)c1Cl` [Example 51, 2-((2-chloro-5-cyano-3-(methyl(2-(3-oxetanylamino)ethyl)amino)phenyl)amino)-4-(cyclopropylamino)imidazo [2,1-f][1,2,4]triazine-7-carbonitrile], for which the IC50 was determined as 2.47 nM.

Consider `N#Cc1cc(Nc2nc(NC3CC3)c3ncc(C#N)n3n2)c(Cl)c(N2CCN(CC(F)F)CC2)c1` [Example 52, 2-((2-chloro-5-cyano-3-(4-(2,2-difluoroethyl)-1-piperazinyl)phenyl)amino)-4-(cyclopropylamino)imidazo[2,1-f][1,2,4]triazine-7-carbonitrile], for which the IC50 was determined as 0.66 nM.

As for `COC(=O)N1CC(N2CCN(c3cc(C#N)cc(Nc4nc(NC5CC5)c5ncc(C#N)n5n4)c3Cl)CC2)C1` [Example 53, methyl 3-(4-(2-chloro-5-cyano-3-((7-cyano-4-(cyclopropylamino)imidazo[2,1-f][1,2,4]triazin-2-yl)amino)phenyl)-1-piperazinyl)-1-azetidinecarboxylate], the IC50 worked out at 2.69 nM.

As to `COCCN1CCN(c2cc(C#N)cc(Nc3nc(NC4CC4)c4ncc(C#N)n4n3)c2Cl)CC1` [Example 56], the IC50 was found to be 1.14 nM.

The record behind these values is patent publication US9273057B2 (Bristol-Myers Squibb Company, priority 2012, dated 2016).
